Measured values from ChEMBL document CHEMBL4265876, “Natural Products with Heteroatom-Rich Ring Systems” (J Nat Prod, 2017).
≈ marks a conversion by molar mass, not a printed value.

Experiments:
[1] = tested on: Ehrlich; assay: Antitumor activity against mouse Ehrlich carcinoma cells xenografted in white mouse assessed as growth inhibition at 50 mg/kg, ip for 7 days; assay type: functional; settings: 168 h, read-out: GI
[2] = tested on: Influenza A virus; assay: Antiviral activity against Influenza A virus (A/Hanfang/359/95(H3N2)); assay type: functional, organism-based
[3] = tested on: Human alphaherpesvirus 1; assay: Antiviral activity against HSV1; assay type: functional, organism-based
[4] = tested on: Ehrlich; assay: Antitumor activity against mouse Ehrlich carcinoma cells xenografted in white mouse assessed as growth inhibition at 20 mg/kg, ip for 7 days; assay type: functional; settings: 168 h, read-out: GI
[5] = tested on: Aspergillus niger; assay: Antifungal activity against Aspergillus niger assessed as inhibition zone at 100 ug/hole; assay type: functional
[6] = tested on: Fusarium oxysporum; assay: Antifungal activity against Fusarium oxysporum assessed as inhibition zone at 100 ug/hole; assay type: functional
[7] = tested on: Cercospora sojina; assay: Antifungal activity against Cercospora sojina assessed as inhibition zone at 100 ug/hole; assay type: functional
[8] = tested on: Pyricularia oryzae; assay: Antimicrobial activity against Pyricularia orizae; assay type: functional
[9] = tested on: Dunaliella tertiolecta; assay: Algicidal activity against Dunaliella tertiolecta ATCC 30929; assay type: functional
[10] = tested on: Daucus carota; assay: Herbicidal activity against Daucus carota; assay type: functional
[11] = tested on: Bacillus subtilis; assay: Antibacterial activity against Bacillus subtilis; assay type: functional
[12] = tested on: Dunaliella salina; assay: Algicidal activity against Dunaliella salina; assay type: functional
[13] = tested on: Serratia marcescens; assay: Antibacterial activity against Serratia marcescens; assay type: functional
[14] = tested on: Auxenochlorella pyrenoidosa; assay: Algicidal activity against Chlorella pyrenoidosa IAM C-212; assay type: functional
[15] = tested on: Armoracia rusticana; assay: Herbicidal activity against Armoracia rusticana; assay type: functional
[16] = tested on: Catharanthus roseus; assay: Herbicidal activity against Catharanthus roseus; assay type: functional
[17] = tested on: [Chlorella] fusca; assay: Algicidal activity against Chlorella fusca IAM C-28; assay type: functional; settings: Scenedesmus fuscus
[18] = tested on: Nostoc commune; assay: Growth inhibition of Nostoc commune NIES 24; assay type: functional
[19] = tested on: Proteus vulgaris; assay: Antibacterial activity against Proteus vulgaris; assay type: functional
[20] = tested on: Trichormus variabilis; assay: Growth inhibition of Anabaena variabilis NIES 23; assay type: functional
[21] = tested on: Chlamydomonas reinhardtii; assay: Algicidal activity against Chlamydomonas reinhardtii IAM C-238; assay type: functional
[22] = tested on: Anabaena cylindrica; assay: Growth inhibition of Anabaena cylindrica NIES 19; assay type: functional
[23] = tested on: Escherichia coli; assay: Antibacterial activity against Escherichia coli; assay type: functional
[24] = tested on: K562; assay: Cytotoxicity against human K562 cells assessed as decrease in cell viability after 48 hrs by MTT assay; assay type: functional, cell-based; settings: K562, 48 h
[25] = tested on: A549; assay: Cytotoxicity against human A549 cells assessed as decrease in cell viability after 48 hrs by MTT assay; assay type: functional, cell-based; settings: A549, 48 h
[26] = tested on: L1210; assay: Cytotoxicity against mouse L1210 cells; assay type: functional, cell-based
[27] = tested on: V79; assay: Cytotoxicity against chinese hamster V79 cells; assay type: cell-based; settings: Cricetulus griseus
[28] = tested on: Mycobacterium; assay: Antibacterial activity against Mycobacterium B5; assay type: functional
[29] = tested on: Ehrlich; assay: Antitumor activity against mouse Ehrlich carcinoma cells xenografted in white mouse assessed as growth inhibition at 0.2 mg/kg, ip for 7 days; assay type: functional; settings: 168 h, read-out: GI
[30] = tested on: Xanthomonas citri pv. malvacearum; assay: Antibacterial activity against Xanthomonas malvacearum; assay type: functional
[31] = tested on: Clavibacter michiganensis; assay: Antibacterial activity against Clavibacter michiganensis; assay type: functional
[32] = Inhibition of protein kinase A (unknown origin); parameters: species or system Homo sapiens
[33] = tested on: Mucor hiemalis; assay: Antifungal activity against Mucor hiemalis assessed as inhibition zone at 50 ug/disk; assay type: functional; settings: read-out: IZ
[34] = tested on: Staphylococcus aureus; assay: Antibacterial activity against Staphylococcus aureus assessed as inhibition zone at 50 ug/disk; assay type: functional; settings: read-out: IZ
[35] = tested on: Escherichia coli; assay: Antibacterial activity against Escherichia coli assessed as inhibition zone at 50 ug/disk; assay type: functional; settings: read-out: IZ
[36] = tested on: Ruegeria atlantica; assay: […] activity against Ruegeria atlantica assessed as inhibition zone at 50 ug/disk; assay type: functional; settings: read-out: IZ
[37] = tested on: Saccharomyces cerevisiae; assay: Antifungal activity against Saccharomyces cerevisiae assessed as inhibition zone at 50 ug/disk; assay type: functional; settings: read-out: IZ
[38] = tested on: Trypanosoma cruzi; assay: Antitrypanosomal activity against Trypanosoma cruzi Y intracellular amastigotes; assay type: functional, organism-based
[39] = tested on: Trypanosoma cruzi; assay: Antitrypanosomal activity against Trypanosoma cruzi Y by MTT assay; assay type: functional, organism-based
[40] = tested on: Enterobacter sp.; assay: Antimicrobial activity against Enterobacter sp.; assay type: functional
[41] = tested on: Klebsiella sp.; assay: Antimicrobial activity against Klebsiella sp.; assay type: functional
[42] = tested on: Candida albicans; assay: Antifungal activity against Candida albicans; assay type: functional
[43] = tested on: Salmonella sp.; assay: Antimicrobial activity against Salmonella sp.; assay type: functional
[44] = tested on: Proteus sp.; assay: Antimicrobial activity against Proteus sp.; assay type: functional; settings: Proteus sp. (in: enterobacteria)
[45] = tested on: Trichophyton mentagrophytes; assay: Antimicrobial activity against Trichophyton mentagrophytes; assay type: functional
[46] = tested on: Enterococcus faecalis; assay: Antimicrobial activity against Streptococcus faecalis; assay type: functional
[47] = tested on: Citrobacter; assay: Antimicrobial activity against Citrobacter; assay type: functional
[48] = tested on: Staphylococcus aureus; assay: Antibacterial activity against Staphylococcus aureus; assay type: functional
[49] = tested on: L5178Y; assay: Cytotoxicity against mouse L5178Y cells by MTT assay; assay type: functional, cell-based
[50] = tested on: Micrococcus luteus; assay: Antibacterial activity against Micrococcus luteus assessed as inhibition zone at 20 ug; assay type: functional; settings: read-out: IZ
[51] = tested on: L1210; assay: Cytotoxicity against mouse L1210 cells assessed as decrease in cell viability at 5 ug; assay type: functional

Molecule `COc1[nH]nc2nncnc12` has an inhibition in vivo at 50 mg/kg [1] of 83%.
`C=C[C@@H](O)Cc1nsc(C2=CCCS[C@]23C(=O)Nc2ccccc23)n1` gave an IC50 [2] of 33300 nM and an IC50 [3] of 33300 nM.
`COc1nnc2n(C)ncnc1-2` [PSEUDOIODININE] gave an inhibition in vivo at 20 mg/kg [4] of 64%.
For `CC(=O)O[C@H]1CC[C@]23C[C@]24CC[C@]2(C)[C@@H]([C@H](C)CCC5OOC(C)(C)O5)CC[C@@]2(C)[C@@H]4CC[C@H]3C1(C)C` (stereo partly specified), the “inhibition zone (IZ)” value [5] was 2 mm, the “inhibition zone (IZ)” value [6] was 2 mm and the “inhibition zone (IZ)” value [7] was 2 mm.
Molecule `C1SCSSCS1` has an MIC [8] of 50 µg/mL (≈ 294 µM).
`Cn1ncnc2c(=O)[nH]nc1-2` showed an MIC [9] of 20 µM (≈ 3.02 µg/mL), an MIC [10] of 1 to 2 µg/mL (≈ 6.62 to 13.2 µM) and an MIC [11] of 6 µg/mL (≈ 39.7 µM). It also gave an MIC [12] of 15 µM (≈ 2.27 µg/mL), an MIC [13] of 7 µg/mL (≈ 46.3 µM) and an MIC [14] of 30 µM (≈ 4.53 µg/mL). The MIC [15] was 1 to 2 µg/mL (≈ 6.62 to 13.2 µM), the MIC [16] was 1 to 2 µg/mL (≈ 6.62 to 13.2 µM) and the MIC [17] was 5 µM (≈ 0.756 µg/mL). For the same molecule, the MIC [18] was 20 µM (≈ 3.02 µg/mL), the MIC [19] was 12 µg/mL (≈ 79.4 µM) and the MIC [20] was 30 µM (≈ 4.53 µg/mL). The MIC [21] was 30 µM (≈ 4.53 µg/mL), the MIC [22] was 30 µM (≈ 4.53 µg/mL) and the MIC [23] was 8 µg/mL (≈ 52.9 µM).
Work on `CC1=C(c2ccccc2)N(C)NC(=O)N1` yielded an IC50 [24] of 66900 nM and an IC50 [25] of 21800 nM.
For `COc1cc(CCN(C)C)c2c(c1O)SSSSS2` [ISOLISSOCLINOTOXIN B], the IC50 [26] was 640 nM and the IC50 [27] was 250 nM.
For `COc1nnc2nn(C)cnc1-2`, the MIC [28] was 5000 to 50000 µg/mL (≈ 30300 to 303000 µM), the inhibition in vivo at 0.2 mg/kg [29] was 40% and the MIC [30] was 5000 to 50000 µg/mL (≈ 30300 to 303000 µM). The MIC [31] was 5000 to 50000 µg/mL (≈ 30300 to 303000 µM).
For `COc1c(OC)c2c(c(CCN(C)C)c1SC)SSS2`, the IC50 [32] was greater than 25 µg/mL, the zone of inhibition at 50 µg/disc [33] was 10.3 to 32.4 mm and the zone of inhibition at 50 µg/disc [34] was 10.3 to 32.4 mm. For the same molecule, the zone of inhibition at 50 µg/disc [35] was 10.3 to 32.4 mm, the zone of inhibition at 50 µg/disc [36] was 10.3 to 32.4 mm and the IC50 [27] was 190 nM. For the same molecule, the zone of inhibition at 50 µg/disc [37] was 10.3 to 32.4 mm.
With `C=C(C)C1CNC(NCC=C(C)C)=NO1` (stereo unspecified) the IC50 [38] was 27 µg/mL (≈ 129 µM) and the IC50 [39] was 93 µg/mL (≈ 444 µM).
`COc1c(OC)c2c(c(CCN(C)C)c1SC)SSSSS2` gave an IC50 [32] greater than 25 µg/mL, a zone of inhibition at 50 µg/disc [33] of 14.2 to 30 mm and a zone of inhibition at 50 µg/disc [34] of 14.2 to 30 mm. It also gave a zone of inhibition at 50 µg/disc [35] of 14.2 to 30 mm, a zone of inhibition at 50 µg/disc [36] of 14.2 to 30 mm and an IC50 [27] of 150 nM. For the same molecule, the zone of inhibition at 50 µg/disc [37] was 14.2 to 30 mm.
With `COc1c(O)cc(CCN)c2c1SSSSS2` the MIC [40] was 0.1 to 0.6 µg/mL (≈ 0.307 to 1.84 µM), the MIC [41] was 0.1 to 0.6 µg/mL (≈ 0.307 to 1.84 µM) and the MIC [42] was 40 µg/mL (≈ 123 µM). The IC50 [26] was 1 µg/mL, the MIC [43] was 0.1 to 0.6 µg/mL (≈ 0.307 to 1.84 µM) and the MIC [44] was 0.1 to 0.6 µg/mL (≈ 0.307 to 1.84 µM). The MIC [45] was 20 µg/mL (≈ 61.4 µM), the MIC [46] was 0.1 to 0.6 µg/mL (≈ 0.307 to 1.84 µM) and the MIC [47] was 0.1 to 0.6 µg/mL (≈ 0.307 to 1.84 µM). It also gave an MIC [48] of 0.1 to 0.6 µg/mL (≈ 0.307 to 1.84 µM) and an MIC [23] of 0.1 to 0.6 µg/mL (≈ 0.307 to 1.84 µM).
With `Nc1nsc(C(=O)c2ccc(O)cc2)n1` the IC50 [49] was 410 nM.
For `N[C@@H]1CSCON2CCc3c([nH]c4ccc(O)c(Br)c34)[C@H]12` [EUDISTOMIN E], the zone of inhibition at 20 µg/disc [50] was 46 mm and the Activity [51] was 100%.
